In PubChem BioAssay AID1963858 (Molecular Pharmacology Branch, DTP, NCI, 2024):

Tested on: HOP-62 multicell spheroids with HUVEC/MSC, viability
Test: Anticancer human tumor HOP-62 cell line growth inhibition [KRAS2];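 further: viability read after a week of compound exposure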;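 on viability, T/C: 100% = DMSO vehicle-treated spheroids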
Conditions: for IC50: curve of first compound; for viability, T/C: stronger effect = lower value; active means viability on the fitted dose curve at most 10% of control; inactive means the rest
Text: Multicellular complex tumor spheroid response to RAS pathway inhibitors in combination with a targeted agents in patient-derived cell lines with oncogenic KRAS variants from multiple cancer types
A high-throughput screen of multi-cell type tumor spheroids was designed to identify active combinations of targeted small molecules and KRAS pathway inhibitors. Complex spheroids include a stromal component modeled by human endothelial cells (HUVEC) and fibroblasts modeled by human mesenchymal stem cells (MSCs). The concentration ranges selected for each drug and investigational agent were based upon clinically achievable concentrations if the clinical Cmax of the agent was known.
Compounds. The drugs and investigational agents: BI-3406 (NSC825286), BAY-293 (NSC824723), batoprotafib (TNO155; NSC825523), sotorasib (AMG 510; NSC818433), MRTX1257 (NSC819558), elimusertib (BAY 1895344; NSC800525), molibresib (GSK525762; NSC774829), temuterkib (LY3214996; NSC803410), venetoclax (NSC766270), alisertib (NSC759677), olaparib (NSC753686), talazoparib (NSC767125), erdafitinib (NSC781556), ipatasertib (NSC767898), cabozantinib (NSC761068), nintedanib (NSC756659), abemaciclib (NSC768073), docetaxel (NSC628503), trametinib (NSC758246), and sapanisertib (NSC764658) were obtained from the National Cancer Institute (NCI) Developmental Therapeutics Program Chemical Repository. The FDA-approved anticancer drug set is available from the Developmental Therapeutics Program. […] The stock solutions were prepared in dimethyl sulfoxide (DMSO, Sigma-Aldrich, St. Louis, MO, cat. D2650) at 800-fold the tested concentration and stored at -70 degrees C prior to their use. All drugs and investigational agents were tested over a range starting from a high concentration at or near the clinical Cmax and decreasing in half-log increments. If the clinical Cmax for an agent had not been determined, the highest concentration tested was 10 microM.
Cell Culture. All cells were maintained in an incubator at 37 degrees C and 5% CO2 with 95% humidity. The PDC lines were cultured according to standard operating procedures established by the NCI PDMR (https://pdmr.cancer.gov/sops/default.htm). Briefly, all PDCs were thawed and cultured in Matrigel-coated flasks prepared with a working solution of 1X Ham's F-12 nutrient mix, without supplementation (Invitrogen, Waltham, MA, cat. 11765054), 100 U/mL penicillin-streptomycin (Invitrogen, cat. 15140122), and 2.5% Matrigel (Corning Inc., Corning, NY, cat. 354248) for the first three passages. All PDCs were cultured in complete DMEM/F-12 media containing advanced DMEM/F-12 (Invitrogen, cat. 12634028), 4.9% defined fetal bovine serum, heat inactivated (HyClone Laboratories Inc., Logan, UT, cat. SH30070.03HI), 389 ng/mL hydrocortisone (Sigma-Aldrich, cat. H4001), 9.7 ng/mL human EGF recombinant protein (Invitrogen, cat. PHG0313), 23.4 microg/mL adenine (Sigma-Aldrich, cat. A2786), 97.3 U/mL penicillin-streptomycin (Invitrogen, cat. 15140122), 1.9 mM L-glutamine (Invitrogen, cat. 25030081), and 9.7 microM Y-27632 dihydrochloride (Tocris Bioscience, Bristol, United Kingdom, cat. 1254). The PDCs were cultured in complete DMEM/F12 media without 9.7 microM Y-27632 dihydrochloride for at least two passages prior to the screen. The established cell line HOP-62 was cultured in RPMI 1640 medium, HEPES (Invitrogen, cat. 22400105) with 10% defined fetal bovine serum (HyClone Laboratories Inc., cat. SH30070.03) and 2 mM L-glutamine (Invitrogen, cat. 25030081). The pooled donor HUVEC were cultured in endothelial cell growth medium 2 (PromoCell, Heidelberg, Germany, cat. C-22011) and the hMSC were cultured in mesenchymal stem cell growth medium 2 (PromoCell, cat. C-28009). For all experiments, HUVEC and hMSC were used at passages </=5, while the malignant cell lines were used at passages </=15. […]

CC(=O)Nc1cccc(-n2c(=O)n(C3CC3)c(=O)c3c(Nc4ccc(I)cc4F)n(C)c(=O)c(C)c32)c1 + C=CC(=O)N1CCN(c2nc(=O)n(-c3c(C)ccnc3C(C)C)c3nc(-c4c(O)cccc4F)c(F)cc23)C(C)C1
0.879 nM: IC50 (second compound 0.316 µM)
0.561 nM: IC50 (second compound 3.16 µM)
0.78 nM: IC50 (second compound 0.1 µM)
0.124 nM: IC50 (second compound 10 µM)
0.915 nM: IC50 (second compound 1 µM)
inactive: viability, T/C (second compound 0.1 µM, first compound 0.0001 µM) 78.5% | viability, T/C (second compound 0.1 µM, first compound 0.000316 µM) 61.2% | viability, T/C (second compound 0.1 µM, first compound 0.001 µM) 49.1% | viability, T/C (second compound 0.1 µM, first compound 0.00316 µM) 29.7% | viability, T/C (second compound 0.1 µM, first compound 0.01 µM) 18.9% | viability, T/C (second compound 0.1 µM, first compound 0.0316 µM) 14.7% | viability, T/C (second compound 0.316 µM, first compound 0.0001 µM) 61.6% | viability, T/C (second compound 0.316 µM, first compound 0.000316 µM) 72.7% | viability, T/C (second compound 0.316 µM, first compound 0.001 µM) 43.8% | viability, T/C (second compound 0.316 µM, first compound 0.00316 µM) 30.2% | viability, T/C (second compound 0.316 µM, first compound 0.01 µM) 19.2% | viability, T/C (second compound 0.316 µM, first compound 0.0316 µM) 16.8% | viability, T/C (second compound 1 µM, first compound 0.0001 µM) 73.8% | viability, T/C (second compound 1 µM, first compound 0.000316 µM) 61.7% | viability, T/C (second compound 1 µM, first compound 0.001 µM) 51% | viability, T/C (second compound 1 µM, first compound 0.00316 µM) 32% | viability, T/C (second compound 1 µM, first compound 0.01 µM) 22.6% | viability, T/C (second compound 1 µM, first compound 0.0316 µM) 18.5% | viability, T/C (second compound 3.16 µM, first compound 0.0001 µM) 77.2% | viability, T/C (second compound 3.16 µM, first compound 0.000316 µM) 50.6% | viability, T/C (second compound 3.16 µM, first compound 0.001 µM) 44.5% | viability, T/C (second compound 3.16 µM, first compound 0.00316 µM) 39.4% | viability, T/C (second compound 3.16 µM, first compound 0.01 µM) 26.2% | viability, T/C (second compound 3.16 µM, first compound 0.0316 µM) 22.1% | viability, T/C (second compound 10 µM, first compound 0.0001 µM) 53.8% | viability, T/C (second compound 10 µM, first compound 0.000316 µM) 39% | viability, T/C (second compound 10 µM, first compound 0.001 µM) 43% | viability, T/C (second compound 10 µM, first compound 0.00316 µM) 34.8% | viability, T/C (second compound 10 µM, first compound 0.01 µM) 26.8% | viability, T/C (second compound 10 µM, first compound 0.0316 µM) 22.8%
